A short description of data set [1]: Evaluation 1 (Solubility): saturation solubility in water, THF, NMP and toluene. In kind it is physicochemical. The conditions noted are these: for Solubility NMP: N-methylpyrrolidone; for Solubility NMP / Solubility THF / Solubility Toluene / Solubility Water: 25° C., saturation solubility; for Solubility THF: tetrahydrofuran. The procedure: 2 g each of water, tetrahydrofuran (THF), N-methylpyrrolidone (NMP), and toluene were added to glass screw tube bottles. Small portions of styrenesulfonic acid salts were added thereto at 25° C., and the solubilities thereof were observed while shaking the bottles by hand. In each case, the point at which the solid started to remain was determined to be saturation solubility, and the solubility was calculated by the following Equation. Solubility (wt %)=A/(S+A)×100
A: Weight of amine added (g)

Data set [2] is described as follows: Evaluation 2 (Storage Stability): accelerated test of polymerization stability of the solid at 60° C. The note with it: for Comprehensive Evaluation (storage stability): sealed bottle, one week.
Experimental: 2.0 g of the solid of styrenesulfonic acid salt was added to glass screw tube bottle, and the bottle was sealed with a plug. Then, the bottle was placed in a box dryer at 60° C., and an accelerated test of polymerization stability was performed.
Sampling was performed every other day for a total of one week to check properties, odor, pH change, and the progress of polymerization by heat.
TOASS was dissolved in dimethylformamide and subjected to GPC analysis using a 10 mmol/L lithium bromide dimethylformamide solution as eluent.

The record followed here is US11459410B2, “High-purity amphipathic arylsulfonic acid amine salt vinyl monomer and copolymer thereof” (TOSOH FINECHEM CORPORATION, priority 2017, dated 2022).

Where two headings read alike, the source gives them in different places.

Turning to `C=Cc1ccc(S(=O)(=O)O)cc1.CCCCCCCCN(CCCCCCCC)CCCCCCCC` [TOASS, parastyrenesulfonic acid n-trioctylamine, reference compound], the “Solubility in water (in words)” value in data set [1] is recorded as “poor water solubility”. For the same compound, the “Monomer (area %), after one week” value in data set [2] (GPC, solid, 60° C.) came to 0.00 area %. Besides, the “Odor, after one week” value in data set [2] (solid, 60° C.) is listed as “Yes”. Besides, in data set [2] (solid, 60° C., first day), the “Properties on the first day of evaluation” value is reported as “yellow translucent plastic form”.
Take `C=Cc1ccc(S(=O)(=O)O)cc1.CCCCCCCCN` [MOASS, parastyrenesulfonic acid n-monooctylamine salt, reference compound]: the “Solubility (in words)” value in data set [1] is “did not have sufficient solubility”. Also, the “Monomer (area %), after one week” value in data set [2] (GPC, solid, 60° C.) turned out to be 92.20 area %. Besides, the “Odor, after one week” value in data set [2] (solid, 60° C.) is reported as “No”.
With “parastyrenesulfonic acid N,N-dimethylcyclohexylamine salt [CHASS]”, in data set [1], the “Solubility NMP” value was “∘ (Easily soluble (10 wt % or more))”, the “Solubility THF” value is on record as “∘ (Easily soluble (10 wt % or more))” and the “Solubility Toluene” value was “Δ (Soluble (1 to 10 wt %))”. In data set [1] (organic solvent), the “Solubility in an organic solvent (in words)” value is given as “sufficient solubility in an organic solvent”. Moreover, in data set [1] (water), the “Solubility in water (in words)” value was “soluble in water” and the “Solubility Water” value is “∘ (Easily soluble (10 wt % or more))”. For the same compound, the “Monomer (area %), before start of reaction” value in data set [2] (GPC, before start of the 60° C. test) was found to be 100 area %. Besides, the “Monomer (area %), after one week” value in data set [2] (GPC, solid, 60° C.) was determined as 97.24 area %. The “Odor, before start of reaction” value in data set [2] (before start of the 60° C. test) is on record as “No”. Moreover, in data set [2] (solid, 60° C.), the “Odor, after one week” value is given as “No” and the “Comprehensive Evaluation (storage stability)” value was “∘”.
“parastyrenesulfonic acid N,N-diisopropylethylamine salt [DIPEASS]”: in data set [1], the “Solubility NMP” value is listed as “∘ (Easily soluble (10 wt % or more))”, the “Solubility THF” value was “Δ (Soluble (1 to 10 wt %))” and the “Solubility Toluene” value is “Δ (Soluble (1 to 10 wt %))”. For the same compound, in data set [1] (water), the “Solubility Water” value was “∘ (Easily soluble (10 wt % or more))”. In addition, the “Monomer (area %), after one week” value in data set [2] (GPC, solid, 60° C.) is on record as 92.40 area %. For the same compound, in data set [2] (solid, 60° C.), the “Odor, after one week” value is “No” and the “Comprehensive Evaluation (storage stability)” value is on record as “∘”.
Turning to “parastyrenesulfonic acid dicyclohexylamine salt [DCHASS, reference compound]”, in data set [1], the “Solubility NMP” value is listed as “∘ (Easily soluble (10 wt % or more))”, the “Solubility THF” value is “x (Insoluble (1 wt % or less))” and the “Solubility Toluene” value is recorded as “x (Insoluble (1 wt % or less))”. In addition, the “Solubility (in words)” value in data set [1] (overall, Evaluation 1) is reported as “did not have sufficient solubility”. Also, the “Solubility Water” value in data set [1] (water) is listed as “x (Insoluble (1 wt % or less))”.
